# Results reported in patent US12077495B2 (priority 2018, dated 2024).
# pEC50: −log10 of the molar value.
# Key:
# MCP-1, IL-6 and IL-1a = assay: Quantification of cytokines in plasma after photothrombotic focal ischemia; format: in vivo, mice; conditions: 4 hrs after focal ischemia
# Description: Detection of MCP-1 (monocyte chemotactant protein-1), IL-6 (interleukin-6) and IL-1a (interleukin-1a) was performed using a LEGENDplex assay kit according to the manufacturers' instructions (BioPlex, BioLegend, San Diego, CA, USA).
# To evaluate the inflammatory response at early time points, blood samples were collected 4 hrs after induction of a focal ischemic event.
# [1] = system: proton-coupled transporters (MCTs) endogenously present in tsA201 cells; assay: MCT-mediated uptake in tsA201 cells (BCECF pH-sensitive dye); format: cell-based; conditions: 2 min, read-out: EC50, concentration-dependent decrease in intracellular pH
# Description: Uptake was measured using the cell-permeable pH-sensitive dye 2′,7′-Bis(2-carboxyethyl)-5(6)-carboxyfluorescein acetoxymethyl ester (BCECF-AM) (Molecular Probes), utilizing the endogenous expression of MCTs in tsA201 cells. The day before the assay, cells were plated (50,000 cells/well) in black poly-D-lysin-coated 96-well plates with clear bottom (VWR, Radnor, PA, USA). […] Cells were then washed twice with 100 μl buffer and the cell plate assayed at 37° C. in a FlexStation 3 reader (Molecular Devices).
# Cells (tsA201; related to HEK293-T) known to express MCTs were grown in 96-well plates and exposed to compounds and pH-decreased measured for 2 min.
# [2] = system: permanent middle cerebral artery occlusion in C57BL/6J mice; assay: pMCAO model of focal ischemia, infarct volume; format: in vivo; conditions: 175 mg/kg 30 min after pMCAO; day 3; saline 16.6
# Description: The pMCAO study was performed using age-matched, young adult (7-8 weeks), male C57BL/6J mice (Taconic). Mice were housed in separate cages under diurnal lighting and given free access to food (1314 Altromin) and water. Mice were acclimatized for seven days prior to surgery in accordance with guidelines approved by the Danish Animal Ethical Committee.
# Focal cerebral ischemia was made by permanent occlusion of the distal part of the left middle cerebral artery (MCA). Mice were anesthetized by injection of a mixture of Hypnorm (fentanyl citrate 0.315 mg/ml and fluanisone 10 mg/ml; Jansen-Cilag), Stesolid (5 mg/ml Diazepamum; Dumex) and distilled water (1:1:2; 0.20 ml/10 g body weight, s.c.). The mouse was placed on a 37±0.5° C. warm heating pad and a skin incision was made from eye to ear. […]
# For quantification of the infarcted area, animals were perfused with saline and then with 4% paraformaldehyde (PFA) and the brain dissected out and submerged in 4% PFA for post-fixing overnight. […] Sections were mounted, stained for cresyl violet and the infarct volumes determined by measuring every 6th section through the entire infarct as described in Lie et al (2017). […] The glass slides were stored at −80° C. until further processing, and then Cresyl-Violet stained and quantified as described for the photothrombotic photochemical method. […]
# GABAB receptor [3] = target: T1, GABAB receptor (Rattus norvegicus, UniProt Q9Z0U4); assay: 3H-GABA binding assay for GABAB, rat cortex membranes; conditions: up to concentrations of 1 mM
# T1 construct: using crude synaptic membranes prepared from rat cortex; from tissue; host or cells: rat cortex, crude synaptic membranes
# Description: Following incubation by rapid filtration through GF/C unifilters (PerkinElmer, Boston, MA, USA), using a 96-well Packard cell-harvester (PerkinElmer) and three fast washes with ice-cold binding buffer, microscint scintillation fluid (PerkinElmer) was added to the dried filters, and the amount of filter-bound radioactivity was quantified in a Packard TopCount microplate scintillation counter (PerkinElmer). […] The binding reactions were terminated by rapid filtration through GF/C filters (Whatman), soaked in 0.1% polyethylene imine, using a Brandell 48-well harvester and rapid washing with ice-cold binding buffer. […] Data are presented as % specific binding (of control), and IC50 or Ki values calculated by means of non-linear regression curve-fitting and the Cheng-Prusoff equation, respectively.
# GABAB receptor [4] = target: T1, GABAB receptor; conditions: cited from earlier work
# GFAP, CD14 and MMP9 mRNA = assay: qPCR of molecular markers in peri-infarct tissue after photothrombotic focal ischemia; format: in vivo, mice; conditions: 3 days post-stroke
# Description: Tissue from the peri-infarct area was collected and snap-frozen 12-72 hrs post stroke and RNA was extracted using a RNA mini kit (Qiagen) following the instructions from the manufacturer. Extracted RNA was treated with DNAse using Turbo DNA-free kit (Ambion), all according to the manufacturer's protocol. The reverse transcription was performed using gScript™ cDNA SuperMix (Quanta Biosciences, Gaithersburg, MD, USA) on a standard PCR machine (25° C. for 5 min, 42° C. for 30 min, 85° C. for 5 min) and cDNA stored at −20° C. until further processing.
# qPCR was performed in 96-well plates (Agilent Technologies, Santa Clara, CA, USA) mixing PerfeCTa SYBR Green FastMix (Quanta Biosciences), nuclease free water (Qiagen, West Sussex, UK), and primers (TAG Copenhagen A/S (Copenhagen, Denmark). The PCR was performed with an initial denaturation step of 95° C. for 30 s, followed by 40 cycles of 5 s at 95° C., 60° C. for 15 s and 72° C. for 10 s. To assure single-product amplification, a dissociation curve analysis was performed consisting of 60 s at 95° C., 30 s at 55° C. and 30 s at 95° C. The qPCR was performed using the Agilent Mx3005P qPCR system (Agilent Technologies), and the corresponding MxPro software was used to determine the Ct values. The ΔCt values were calculated using 2 (Reference Ct−Target Ct).
# To investigate the protective mechanisms against brain damage following a focal ischemic insult, mRNA expression levels of the markers GFAP, CD14 and MMP9 were measured in the brain tissue surrounding the ischemic core 3 days post-stroke.
# [5] = 175 mg/kg 30 min after ischemia
# T1 sequence (Q9Z0U4 17-960 limits assumed): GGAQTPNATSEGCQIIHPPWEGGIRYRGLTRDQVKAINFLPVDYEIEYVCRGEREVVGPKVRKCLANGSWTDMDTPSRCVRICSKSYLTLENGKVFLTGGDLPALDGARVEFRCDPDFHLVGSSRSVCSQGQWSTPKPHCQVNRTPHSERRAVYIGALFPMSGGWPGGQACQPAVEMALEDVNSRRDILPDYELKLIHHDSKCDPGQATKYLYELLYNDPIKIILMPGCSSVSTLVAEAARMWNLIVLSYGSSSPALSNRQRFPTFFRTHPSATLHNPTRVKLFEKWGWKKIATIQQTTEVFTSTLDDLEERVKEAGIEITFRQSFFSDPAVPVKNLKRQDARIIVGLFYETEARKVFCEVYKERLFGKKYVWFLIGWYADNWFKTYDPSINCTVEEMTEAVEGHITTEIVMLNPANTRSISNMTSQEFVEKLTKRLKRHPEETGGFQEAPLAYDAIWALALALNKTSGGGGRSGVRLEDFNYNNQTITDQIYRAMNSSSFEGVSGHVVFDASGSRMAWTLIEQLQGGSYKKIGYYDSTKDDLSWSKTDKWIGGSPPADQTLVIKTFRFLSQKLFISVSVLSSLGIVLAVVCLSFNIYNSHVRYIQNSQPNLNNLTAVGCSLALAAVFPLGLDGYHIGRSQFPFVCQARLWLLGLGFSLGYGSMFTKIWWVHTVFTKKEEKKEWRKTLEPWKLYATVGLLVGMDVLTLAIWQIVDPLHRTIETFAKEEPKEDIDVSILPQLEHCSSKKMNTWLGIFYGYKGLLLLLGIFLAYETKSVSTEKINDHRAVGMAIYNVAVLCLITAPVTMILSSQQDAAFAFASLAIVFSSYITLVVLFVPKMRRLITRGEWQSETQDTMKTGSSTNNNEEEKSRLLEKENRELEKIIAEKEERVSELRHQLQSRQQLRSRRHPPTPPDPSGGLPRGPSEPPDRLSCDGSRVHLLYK
# T1 sequence (O88871 41-940 partner): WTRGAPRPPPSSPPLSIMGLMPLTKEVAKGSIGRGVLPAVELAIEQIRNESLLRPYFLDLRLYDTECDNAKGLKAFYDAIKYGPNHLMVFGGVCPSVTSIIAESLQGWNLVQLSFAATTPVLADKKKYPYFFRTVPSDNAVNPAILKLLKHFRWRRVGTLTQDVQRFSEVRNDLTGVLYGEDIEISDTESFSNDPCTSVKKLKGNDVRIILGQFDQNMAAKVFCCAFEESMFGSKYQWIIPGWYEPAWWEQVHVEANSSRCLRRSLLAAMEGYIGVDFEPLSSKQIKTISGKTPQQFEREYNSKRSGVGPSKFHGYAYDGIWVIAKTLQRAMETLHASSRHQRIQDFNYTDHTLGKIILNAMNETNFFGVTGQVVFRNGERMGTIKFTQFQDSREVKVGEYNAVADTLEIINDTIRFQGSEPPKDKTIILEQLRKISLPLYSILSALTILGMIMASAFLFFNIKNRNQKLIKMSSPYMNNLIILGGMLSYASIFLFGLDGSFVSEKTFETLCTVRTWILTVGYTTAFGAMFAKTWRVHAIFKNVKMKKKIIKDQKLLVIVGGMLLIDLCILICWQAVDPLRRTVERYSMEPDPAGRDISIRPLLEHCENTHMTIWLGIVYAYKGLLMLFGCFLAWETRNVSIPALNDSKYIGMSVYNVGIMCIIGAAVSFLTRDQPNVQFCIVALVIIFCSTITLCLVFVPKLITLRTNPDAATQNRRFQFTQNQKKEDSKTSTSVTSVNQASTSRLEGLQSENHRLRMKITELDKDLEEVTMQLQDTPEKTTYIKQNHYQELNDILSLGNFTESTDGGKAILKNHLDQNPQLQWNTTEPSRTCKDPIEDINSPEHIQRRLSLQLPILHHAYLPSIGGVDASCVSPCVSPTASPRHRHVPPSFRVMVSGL
compound,measurement,setting,value
"O=C(O)C1=CC(O)CC1 (centres unmarked) [Compound A, 3-hydroxycyclopent-1-enecarboxylic acid]",MCP-1 plasma levels,"MCP-1, IL-6 and IL-1a",tendency towards a decrease
same,IL-1a plasma levels,"MCP-1, IL-6 and IL-1a; vs saline",did not significantly affect
same,IL-6 plasma levels,"MCP-1, IL-6 and IL-1a; vs saline",significantly lowered
same,pEC50,[1],2.09
same,infarct volume,[2],12.3 mm^3
same,inhibition of 3H-GABA binding to GABAB receptor,GABAB receptor [3],no ability to compete
same,affinity for the GABAB binding site,GABAB receptor [4],does not display any affinity
same,MMP9 mRNA levels,"GFAP, CD14 and MMP9 mRNA; 17.5 mg/kg, vs saline",significantly lower
same,CD14 mRNA levels,"GFAP, CD14 and MMP9 mRNA; [5]",markedly lowered
same,MMP9 mRNA levels,"GFAP, CD14 and MMP9 mRNA; [5]",markedly lowered
same,GFAP mRNA levels,"GFAP, CD14 and MMP9 mRNA; peri-infarct tissue, vs saline",not different
